Experimental data published in patent US11124758B2, “Bacteria culture medium and applications thereof” (priority 2013, dated 2021).
Read-outs that look alike come from different tables or passages of the source.

Assays:
[1] = in human body; cited from earlier work
E. coli DH5α strain = assay: Shelf life test of antibiotic premixed in culture medium: suppression of E. coli growth after storage; format: cell-based; settings: for suppression of growth of E. coli DH5α after storage: 6, 12, 18 and 24 months at 4° C.; for shelf life of culture media containing the antibiotic: 100 μg/ml, LB medium, storage at 4° C.
[2] = less than 25° C.; cited from earlier work
[3] = 4° C.; cited from earlier work
[4] = 4° C., cited from earlier work
[5] = 100 μg/ml or 1 mg/ml in LB liquid and LB agar plate medium, two months of storage at 4° C., incubated overnight at 37° C.
[6] = 10 mg/ml in LB liquid and LB agar plate medium, three months of storage at 4° C.
[7] = 100 mg/ml in LB liquid and LB agar plate medium, four months of storage at 4° C.

CC1(C)S[C@@H]2[C@H](NC(=O)Cc3ccccc3)C(=O)N2[C@H]1C(=O)O.CCN(CC)CCOC(=O)c1ccc(N)cc1 [procaine penicillin]
duration of medicine effect [1]: ≤ 48 h | suppression of growth of E. coli DH5α after storage (E. coli DH5α strain; 10, 40 and 80 mg/ml, LB liquid and LB agar plate medium): able to completely suppress the growth | suppression of growth of E. coli DH5α after storage (E. coli DH5α strain; 10, 40 and 80 mg/ml, SOC liquid and SOC agar plate medium): able to completely suppress the growth

Cc1onc(-c2ccccc2Cl)c1C(=O)N[C@@H]1C(=O)N2[C@@H]1SC(C)(C)[C@@H]2C(=O)O.Cc1onc(-c2ccccc2Cl)c1C(=O)N[C@@H]1C(=O)N2[C@@H]1SC(C)(C)[C@@H]2C(=O)O.c1ccc(CNCCNCc2ccccc2)cc1 [cloxacillin benzathine]
suppression of growth of E. coli DH5α after storage (E. coli DH5α strain; 0.5 and 2.5 mg/ml, YPD liquid and YPD agar plate medium): able to completely suppress the growth | suppression of growth of E. coli DH5α after storage (E. coli DH5α strain; 0.5 and 2.5 mg/ml, YT liquid and YT agar plate medium): able to completely suppress the growth

CC1(C)S[C@@H]2[C@H](NC(=O)Cc3ccccc3)C(=O)N2[C@H]1C(=O)O.CC1(C)S[C@@H]2[C@H](NC(=O)Cc3ccccc3)C(=O)N2[C@H]1C(=O)O.c1ccc(CNCCNCc2ccccc2)cc1 [benzathine benzylpenicillin]
duration of medicine effect [1]: 3-4 weeks | suppression of growth of E. coli DH5α after storage (E. coli DH5α strain; 0.5 and 2.5 mg/ml, LB liquid and LB agar plate medium): able to completely suppress the growth | suppression of growth of E. coli DH5α after storage (E. coli DH5α strain; 0.5 and 2.5 mg/ml, SOC liquid and SOC agar plate medium): able to completely suppress the growth

CC(=O)OCC1=C(C(=O)O)N2C(=O)[C@@H](NC(=O)CSc3ccncc3)[C@H]2SC1.CC(=O)OCC1=C(C(=O)O)N2C(=O)[C@@H](NC(=O)CSc3ccncc3)[C@H]2SC1.c1ccc(CNCCNCc2ccccc2)cc1 [cephapirin benzathine]
suppression of growth of E. coli DH5α after storage (E. coli DH5α strain; 0.25 and 1 mg/ml, M9 minimal liquid and agar plate medium): able to completely suppress the growth | suppression of growth of E. coli DH5α after storage (E. coli DH5α strain; 0.25 and 1 mg/ml, YT liquid and YT agar plate medium): able to completely suppress the growth | time injection suspension can be stored stably [2]: ≤ 36 months

CC1(C)S[C@@H]2[C@H](NC(=O)C(C(=O)O)c3ccccc3)C(=O)N2[C@H]1C(=O)O (stereo partly drawn) [carbenicillin]
suppression of E. coli growth after storage (E. coli DH5α strain; [5]): unable to suppress E. coli growth completely | shelf life of culture media containing the antibiotic (E. coli DH5α strain): no more than two | suppression of E. coli growth after storage (E. coli DH5α strain; [6]): unable to suppress E. coli growth completely | suppression of E. coli growth after storage (E. coli DH5α strain; [7]): unable to suppress E. coli growth completely

CC1(C)S[C@@H]2[C@H](NC(=O)Cc3ccccc3)C(=O)N2[C@H]1C(=O)O.c1ccc(CCNCc2ccccc2)cc1 [benethamine penicillin]
suppression of growth of E. coli DH5α after storage (E. coli DH5α strain; 5 and 25 mg/ml, M9 minimal liquid and agar plate medium): able to completely suppress the growth | suppression of growth of E. coli DH5α after storage (E. coli DH5α strain; 5 and 25 mg/ml, TB liquid and TB agar plate medium): able to completely suppress the growth

CC1(C)S[C@@H]2[C@H](NC(=O)[C@H](N)c3ccccc3)C(=O)N2[C@H]1C(=O)O [ampicillin]
time liquid culture medium and semi-solid agar culture plate medium containing the antibiotic can be kept [3]: about one | suppression of E. coli growth after storage (E. coli DH5α strain; [5]): unable to suppress E. coli growth completely | shelf life of culture media containing the antibiotic (E. coli DH5α strain): no more than two | suppression of E. coli growth after storage (E. coli DH5α strain; [6]): unable to suppress E. coli growth completely | suppression of E. coli growth after storage (E. coli DH5α strain; [7]): unable to suppress E. coli growth completely | time in which activity reduces by 10% ([4]; dissolved in glucose injection solution): around 1 hour | time in which activity reduces by 10% ([4]; dissolved in water or physiological saline (0.9% sodium chloride)): 2 to 3 days
